From publication PMC6240092, “NUAK2 is a critical YAP target in liver cancer” (Nature Communications, 2018)

Biological target: T1, NUAK2 (Homo sapiens, UniProt Q9H093)
T1 construct: N-terminal GST-tagged NUAK2, expressed in HEK-293 cells and purified by glutathione-sepharose
T1 sequence (Q9H093 1-628): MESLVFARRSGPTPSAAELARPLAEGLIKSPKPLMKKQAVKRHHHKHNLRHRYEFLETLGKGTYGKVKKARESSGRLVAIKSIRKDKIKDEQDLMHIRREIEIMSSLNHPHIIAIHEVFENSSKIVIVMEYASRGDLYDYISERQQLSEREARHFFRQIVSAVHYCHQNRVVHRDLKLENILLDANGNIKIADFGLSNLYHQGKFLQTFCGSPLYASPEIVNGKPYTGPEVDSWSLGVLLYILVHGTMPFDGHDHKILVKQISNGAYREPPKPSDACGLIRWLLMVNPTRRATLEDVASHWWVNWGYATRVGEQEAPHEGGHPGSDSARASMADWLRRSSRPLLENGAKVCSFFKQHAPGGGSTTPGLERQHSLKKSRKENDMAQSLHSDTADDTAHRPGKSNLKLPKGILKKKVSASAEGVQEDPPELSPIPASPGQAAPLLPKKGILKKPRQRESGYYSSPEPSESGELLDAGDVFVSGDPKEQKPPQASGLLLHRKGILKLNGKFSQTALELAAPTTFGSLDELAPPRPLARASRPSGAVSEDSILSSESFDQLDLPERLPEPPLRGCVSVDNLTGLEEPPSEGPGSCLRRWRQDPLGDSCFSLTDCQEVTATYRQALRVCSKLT
Assay: radiometric peptide kinase assay with [γ-32P]ATP ([…]) and Sakamototide ([…])
Assay type: biochemical

IC50: 126 nM
Compound: CCC(=O)Nc1cccc(Oc2nc(Nc3ccc(N4CCN(C)CC4)cc3OC)ncc2I)c1 [HTH-02-006]
